Consider 16 compounds from PubChem BioAssay (NCI).

Each structure is given as a SMILES string. Values joined by “and” are separate entries in the source; they are usually repeats but may differ in a detail not shown here. Identical values can stand only once.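 Each compound was tested at five concentrations against cells in 96-well plates for 48 hours. At the GI50, growth is halved. At the TGI there is no net growth.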 Some results are limits rather than exact numbers.

In one experiment the test system is OVCAR-8 ovarian. Kind of experiment: NCI tumour cell line growth inhibition, 48 h.
Take `CCCN(Cc1ccc(F)cc1)c1ccc(CO)c(Cl)c1`: the GI50 was 11.5 µM and the TGI turned out to be 25.8 µM.

Turning to `CC[C@](C)(O)C(=O)O[C@H]1C(=O)O[C@@H]2C[C@H]3C(C)=CC(=O)[C@@H](O)[C@]3(C)[C@H]3[C@@]4(O)OC[C@]32[C@@H]1[C@@H](C)[C@H]4O`, the GI50 is 0.164 µM; the TGI was 1.74 µM and 0.541 µM.

As for `CCN1C(=O)N(CC)C2C1NN=c1s/c(=C3\C(=O)N(C(C)C)c4ccccc43)c(=O)n12` (centres undefined), the GI50 was 0.62 µM and the TGI is over 53.4 µM.

Consider `NC(=O)[C@H]1CCN(c2ncnc(N)c2F)C[C@@H]1N1CCC[C@@H](Nc2cc(Cl)cc(C(F)(F)F)c2)C1=O`, for which the GI50 is 25.6 µM and the TGI was over 100 µM.

On to `CCN(CC)c1ccc(/C=C/c2cc(C)c3ccccc3n2)cc1`, for which the GI50 was 4.64 µM and the TGI came out at 55.8 µM.

`Cc1ccc2[nH]c(C(=O)NN3C(=O)CSC34CCCCC4C)c(-c3ccccc3)c2c1` (centres undefined): the GI50 was 17.2 µM and the TGI was 35.6 µM.

Regarding `CCN=C1C=CC(=C(c2ccc(N(C)C)cc2)c2ccc(N(C)C)cc2)c2ccccc21`, the GI50 is 0.0816 µM and the TGI turned out to be 1.7 µM.

For `O=C(CCl)c1ccc([N+](=O)[O-])o1`, the GI50 was 3.33 µM and the TGI was 18.8 µM.

The compound `Nc1ncnc2c1ccn2C1OC2COP(=O)(O)OC2C1O` (centres undefined) gave a TGI of 7.94 µM.

Consider `Cc1cc(N2CCCCC2)nc(N(CCNc2ccnc3cc(Cl)ccc23)Cc2ccco2)n1`, for which the GI50 is 1.85 µM and the TGI amounted to 3.68 µM.

On to `O=C(O)[C@@H]1C2CC([C@@H]1C(=O)O)[C@H](N1C(=O)CCC1=O)[C@@H]2Br` (some centres undefined), for which the TGI was over 100 µM.

Consider `CC[C@H](Nc1nc(N)nc(C)c1C#N)c1nc2cccc(CN(C)c3ncc(C(=O)NO)cn3)c2c(=O)n1-c1ccccc1`, for which the GI50 is 0.704 µM and the TGI amounted to 10.3 µM.

`CC1=CC(=O)c2c(O)cccc2C1=O` gave a TGI of 3.2 µM.

As for `CC12CCC(=O)C(O1)C1C(=O)c3cc4ccccc4cc3C(=O)C12` (centres undefined), the GI50 is 22.1 µM and the TGI is 54.9 µM.

The subject of a further experiment is SK-MEL-2 melanoma. Kind of experiment: NCI tumour cell line growth inhibition, 48 h.
Consider `O=c1cc(CNc2cc(F)cc(F)c2)c2ccc(I)cc2[nH]1`, for which the GI50 was 1.44 µM and the TGI is over 100 µM.

As for `CCCN(Cc1ccc(F)cc1)c1ccc(CO)c(Cl)c1`, the GI50 was 2.99 µM and the TGI amounted to 13.3 µM.

Consider `CC[C@](C)(O)C(=O)O[C@H]1C(=O)O[C@@H]2C[C@H]3C(C)=CC(=O)[C@@H](O)[C@]3(C)[C@H]3[C@@]4(O)OC[C@]32[C@@H]1[C@@H](C)[C@H]4O`, for which the TGI is 0.644 µM and 0.217 µM.

As to `CCN1C(=O)N(CC)C2C1NN=c1s/c(=C3\C(=O)N(C(C)C)c4ccccc43)c(=O)n12` (centres undefined), the GI50 was 1.24 µM and the TGI is over 49.7 µM.

For the compound `NC(=O)[C@H]1CCN(c2ncnc(N)c2F)C[C@@H]1N1CCC[C@@H](Nc2cc(Cl)cc(C(F)(F)F)c2)C1=O`, the GI50 was 19 µM and the TGI is 41.5 µM.

Regarding `CCN(CC)c1ccc(/C=C/c2cc(C)c3ccccc3n2)cc1`, the GI50 was 2.61 µM and the TGI amounted to 6.78 µM.

Take `Cc1ccc2[nH]c(C(=O)NN3C(=O)CSC34CCCCC4C)c(-c3ccccc3)c2c1` (centres undefined): the GI50 was 20.9 µM and the TGI is 38.7 µM.

Take `CCN=C1C=CC(=C(c2ccc(N(C)C)cc2)c2ccc(N(C)C)cc2)c2ccccc21`: the GI50 was 0.101 µM and the TGI is 0.472 µM.

Take `O=C(CCl)c1ccc([N+](=O)[O-])o1`: the GI50 was 6.81 µM and the TGI amounted to 27.4 µM.

`Nc1ncnc2c1ccn2C1OC2COP(=O)(O)OC2C1O` (centres undefined) displayed a TGI of 5.52 µM.

Consider `Cc1cc(N2CCCCC2)nc(N(CCNc2ccnc3cc(Cl)ccc23)Cc2ccco2)n1`, for which the GI50 is 2.06 µM and the TGI came to 4.27 µM.

`O=C(O)[C@@H]1C2CC([C@@H]1C(=O)O)[C@H](N1C(=O)CCC1=O)[C@@H]2Br` (some centres undefined) yielded a TGI of over 100 µM.

With `COc1cc2cc(Oc3ccc(NC(=O)Nc4ccc(Cl)c(C(F)(F)F)c4)cc3)c(C)nc2cc1OCCN1CCCCC1`, the GI50 is 1.87 µM and the TGI stood at 3.64 µM.

As for `CC[C@H](Nc1nc(N)nc(C)c1C#N)c1nc2cccc(CN(C)c3ncc(C(=O)NO)cn3)c2c(=O)n1-c1ccccc1`, the GI50 is 1.35 µM and the TGI is 8.75 µM.

For `CC1=CC(=O)c2c(O)cccc2C1=O`, the TGI is 3.72 µM.

Regarding `CC12CCC(=O)C(O1)C1C(=O)c3cc4ccccc4cc3C(=O)C12` (centres undefined), the GI50 was 46.4 µM and the TGI was over 100 µM.

A further experiment relates to SK-MEL-28 melanoma. Kind of experiment: NCI tumour cell line growth inhibition, 48 h.
Regarding `O=c1cc(CNc2cc(F)cc(F)c2)c2ccc(I)cc2[nH]1`, the GI50 is over 67.3 µM and the TGI was over 100 µM.

Consider `CCCN(Cc1ccc(F)cc1)c1ccc(CO)c(Cl)c1`, for which the GI50 is 13.7 µM and the TGI amounted to 27 µM.

In the case of `CC[C@](C)(O)C(=O)O[C@H]1C(=O)O[C@@H]2C[C@H]3C(C)=CC(=O)[C@@H](O)[C@]3(C)[C@H]3[C@@]4(O)OC[C@]32[C@@H]1[C@@H](C)[C@H]4O`, the GI50 was 0.0609 µM; the TGI is 0.264 µM and 0.16 µM.

Consider `CCN1C(=O)N(CC)C2C1NN=c1s/c(=C3\C(=O)N(C(C)C)c4ccccc43)c(=O)n12` (centres undefined), for which the GI50 was 1.07 µM and the TGI is over 100 µM.

Turning to `NC(=O)[C@H]1CCN(c2ncnc(N)c2F)C[C@@H]1N1CCC[C@@H](Nc2cc(Cl)cc(C(F)(F)F)c2)C1=O`, the GI50 was 18.5 µM and the TGI was found to be 44.3 µM.

Regarding `CCN(CC)c1ccc(/C=C/c2cc(C)c3ccccc3n2)cc1`, the GI50 is 6.75 µM and the TGI is over 100 µM.

Take `Cc1ccc2[nH]c(C(=O)NN3C(=O)CSC34CCCCC4C)c(-c3ccccc3)c2c1` (centres undefined): the GI50 is 19.9 µM and the TGI is 38.3 µM.

As for `CCN=C1C=CC(=C(c2ccc(N(C)C)cc2)c2ccc(N(C)C)cc2)c2ccccc21`, the GI50 was 0.15 µM and the TGI amounted to 1.66 µM.
